Entries after “also recorded” stand apart in the source; their conditions may differ. Read-outs that look alike come from different tables or passages of the source.
Tests used:
[1] = tested on: ulcerative colitis; conditions: chronically active, steroid-resistant or steroid-dependant ulcerative colitis; cited from earlier work
[2] = tested on: PHA-stimulated lymphocytes; assay: Lymphocyte steroid sensitivity: dexamethasone inhibition of PHA-stimulated proliferation with and without basiliximab (Example 1); type: cell-based, human; conditions: for Steroid-sensitive (SS) or Steroid-resistant (SR): class by Imax with dexamethasone alone; for PHA-stimulated lymphocyte proliferation (cpm): dexamethasone 10^-6 mol/l; for PHA-stimulated lymphocyte proliferation (cpm) / % suppression / Imax (%): basiliximab 1 mg/l where added; for % suppression: dexamethasone 10^-7 mol/l; for Imax (%): inhibition of proliferation at dexamethasone 10^-6 mol/l
Procedure: (§1) Measurement of lymphocyte steroid sensitivity: The sensitivity of peripheral blood lymphocytes to glucocorticoids is assessed in a functional assay i.e. an in vitro proliferation assay stimulated by phytohaemagglutinin (PHA) and inhibited by dexamethasone. (Hearing S D, et al. Gut 1999; 45:382-8; Hearing S D, et al. J Clin Endocrinol Metab 1999; 84:4149-54). Peripheral blood samples are collected at 09:00 hours, and peripheral blood mononuclear cells (PBMC) are separated by buoyancy centrifugation. Buoyancy centrifugation includes the separation of lymphocytes from the blood sample by centrifugation over a ficol gradient. Ficol allows red blood cells to fall through, but prevents the through-movement of lymphocytes. Peripheral blood mononuclear cells (lymphocytes and marocyes) are collected from the ficol/plasma interface. PBMC proliferation is stimulated with PHA and inhibited with dexamethasone at serial 10 fold dilutions between 10^−6 and 10^−10 mol/1. i.e. 10^−6, 10^−7, 10^−8, 10^−9, 10^−10 mol/1. Cell proliferation is measured by tritiated thymidine uptake i.e. after 2 days of incubation, radioisotape labelled thymidine (^3H-thymidine) is added to the lymphocyte culture medium and became incorporated into the DNA of proliferating lymphocyes. After 6 hours the cells are transferred from the incubator and collected on a filter mat using a cell harvester. The cells are then washed out of the well. The lymphocyte DNA that has incorporated the thymidine is trapped in the filter paper. When radioactivity levels are measured the wells which contain high numbers of actively proliferating lymphocytes (and thus will have incorporated lots of thymidine into the DNA) will have high radioactivity levels. […] The results are calculated as mean counts per minute (cpm) of triplicate cultures. Thymidine incorporation for each concentration of dexamethasone is compared to that of PHA stimulated T lymphocytes in the absence of dexamethasone, and expressed as a percentage of the uninhibited positive control. The effect of different concentrations of basiliximab on lymphocyte proliferation is also studied. In addition, an equal concentration of basiliximab is added to each cell culture medium at all concentrations of dexamethasone and the antiproliferative effect measured.
Effect of […]® on steroid sensitivity: For all eight subjects, PHA-stimulated lymphocytes are cultured in the presence of increasing concentrations of dexamethasone (10^−10-10^−6 mol/l) in the presence and absence of basiliximab (1 mg/l). In previous studies of ulcerative colitis carried out by the inventor, maximal suppression (Imax)<60% correlated with a poor response to steroid therapy (clinical steroid resistance). The exact value of Imax cannot be measured as it is the inhibition at an infinitely high level of dexamethasone. Thus, the percentage inhibition of proliferation observed at the maximum dexamethasone concentration applied (10^−6 mol/l) is used as the measure of Imax. In practice, there is good agreement between Imax and the estimated asymptotic value for maximal inhibition obtained from dose-response curves (Hearing S D et al (1999) Clin. Endoctrinol. Metab 84:4149-54). A concentration of dexamethasone of 10^−7 mol/l is approximately equivalent in terms of glucocorticoid activity to the serum concentrations of hydrocortisone achieved with intravenous therapy at standard doses. Thus, to make comparisons with the potential effect of basiliximab in vivo, the steroid sensitising effect of basiliximab at this concentration of dexamethasone may also be of interest. […] The subjects are shown in decreasing order of steroid sensitivity (with the most sensitive on the left).

[3] = tested on: phytohaemagglutinin stimulated lymphocytes; assay: Lymphocyte steroid sensitivity (Imax) with and without basiliximab, 32 subjects (Example 2); type: cell-based, human
Procedure: Peripheral blood lymphocytes are isolated from 32 subjects (25 healthy volunteers and 7 patients with quiescent Ulcerative Colitis), on 41 occasions, using buoyant density centrifugation. Lymphocyte steroid sensitivity is assessed by measuring the antiproliferative effect of dexamethasone (DEX) on phytohaemagglutinin stimulated lymphocytes. Maximum steroid induced suppression is expressed as a % of control lymphocyte proliferation (Imax). Imax is measured in the absence and presence of basiliximab (1 mg/L).

[4] = tested on: steroid-resistant asthma; conditions: after 8 weeks; cited from earlier work
[5] = tested on: peripheral blood lymphocytes; conditions: high concentrations of prednisolone, cited from earlier work
[6] = tested on: PHA stimulated peripheral blood lymphocytes; assay: PHA-induced lymphocyte proliferation (tritiated thymidine uptake), basiliximab in the absence of steroids; type: cell-based, human; conditions: for PHA-induced cell proliferation (cpm) / Inhibition (%): basiliximab 1 mg/l, absence of steroids; for Inhibition (%): vs PHA alone
Procedure: as §1
Effect of […]® on lymphocyte proliferation: Serum concentration of 0.2 mg/l of basiliximab produces >90% IL-2R occupancy. To test the antiproliferative in vitro effect of basiliximab, various concentrations of between 0.01 and 10 mg/l of basiliximab are incubated with lymphocytes in the absence of steroids. These assays confirm that an in vitro concentration of >0.1 to 0.3 mg/l basiliximab is required to produce the in vitro effect of basiliximab. For further studies on the same subjects, a concentration of 1 mg/l is used. In total, the same eight subjects are studied in each experiment. The effect of basiliximab at a concentration of 1 mg/l on PHA-induced cell proliferation in the absence of steroids is shown in Table 1

[7] = target: T1, IL-2R (Homo sapiens, UniProt P01589); conditions: serum concentration of 0.2 mg/l; cited from earlier work
T1 sequence (P01589 22-272): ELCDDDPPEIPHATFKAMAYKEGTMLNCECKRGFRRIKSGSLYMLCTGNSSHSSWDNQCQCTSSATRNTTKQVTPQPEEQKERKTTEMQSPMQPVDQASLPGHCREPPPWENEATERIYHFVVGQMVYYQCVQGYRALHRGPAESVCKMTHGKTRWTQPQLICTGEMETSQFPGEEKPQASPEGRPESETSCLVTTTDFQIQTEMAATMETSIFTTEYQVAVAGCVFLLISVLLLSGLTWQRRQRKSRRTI

[8] = at the dosage levels employed; cited from earlier work

Cn1cnc([N+](=O)[O-])c1Sc1ncnc2nc[nH]c12 [Azathioprine]
delayed onset of action [1]: 34 months

C[C@@H]1C[C@H]2[C@@H]3CCC4=CC(=O)C=C[C@]4(C)[C@@]3(F)[C@@H](O)C[C@]2(C)[C@@]1(O)C(=O)CO [Dexamethasone, dexamethasone]
Steroid-sensitive (SS) or Steroid-resistant (SR) ([2]; subject 1): SS (steroid-sensitive (Imax>60%; subjects 1-4)) | PHA-stimulated lymphocyte proliferation (cpm) ([2]; subject 1): 3100 cpm | % suppression ([2]; subject 1): 87% | Imax (%) ([2]; subject 1): 92% | Steroid-sensitive (SS) or Steroid-resistant (SR) ([2]; subject 2): SS (steroid-sensitive (Imax>60%; subjects 1-4)) | PHA-stimulated lymphocyte proliferation (cpm) ([2]; subject 2): 4109 cpm | % suppression ([2]; subject 2): 79% | Imax (%) ([2]; subject 2): 84% | Steroid-sensitive (SS) or Steroid-resistant (SR) ([2]; subject 3): SS (steroid-sensitive (Imax>60%; subjects 1-4)) | PHA-stimulated lymphocyte proliferation (cpm) ([2]; subject 3): 9477 cpm | % suppression ([2]; subject 3): 65% | Imax (%) ([2]; subject 3): 77% | Steroid-sensitive (SS) or Steroid-resistant (SR) ([2]; subject 4): SS (steroid-sensitive (Imax>60%; subjects 1-4)) | PHA-stimulated lymphocyte proliferation (cpm) ([2]; subject 4): 11568 cpm | % suppression ([2]; subject 4): 42% | Imax (%) ([2]; subject 4): 64% | Steroid-sensitive (SS) or Steroid-resistant (SR) ([2]; subject 5): SR (steroid-resistant (Imax<60%; subjects 5-8)) | PHA-stimulated lymphocyte proliferation (cpm) ([2]; subject 5): 21685 cpm | % suppression ([2]; subject 5): 20% | Imax (%) ([2]; subject 5): 52% | Steroid-sensitive (SS) or Steroid-resistant (SR) ([2]; subject 6): SR (steroid-resistant (Imax<60%; subjects 5-8)) | PHA-stimulated lymphocyte proliferation (cpm) ([2]; subject 6): 36495 cpm | % suppression ([2]; subject 6): 32% | Imax (%) ([2]; subject 6): 45% | Steroid-sensitive (SS) or Steroid-resistant (SR) ([2]; subject 7): SR (steroid-resistant (Imax<60%; subjects 5-8)) | PHA-stimulated lymphocyte proliferation (cpm) ([2]; subject 7): 18669 cpm | % suppression ([2]; subject 7): 29% | Imax (%) ([2]; subject 7): 35% | Steroid-sensitive (SS) or Steroid-resistant (SR) ([2]; subject 8): SR (steroid-resistant (Imax<60%; subjects 5-8)) | PHA-stimulated lymphocyte proliferation (cpm) ([2]; subject 8): 24681 cpm | % suppression ([2]; subject 8): 36% | Imax (%) ([2]; subject 8): 33% | Median Imax (%) ([3]; 32 subjects on 41 occasions, basiliximab 1 mg/L where added): 78.0%

CN(Cc1cnc2nc(N)nc(N)c2n1)c1ccc(C(=O)N[C@@H](CCC(=O)O)C(=O)O)cc1 [methotrexate]
bronchial muscosal inflammation [4]: reduced | lymphocyte steroid sensitivity [4]: increased

C[C@]12C=CC(=O)C=C1CC[C@@H]1[C@@H]2[C@@H](O)C[C@@]2(C)[C@H]1CC[C@]2(O)C(=O)CO [prednisolone]
percentage of apoptotic cells ([5]; lymphocytes of steroid-resistant SLE group): 44.8% | percentage of apoptotic cells ([5]; lymphocytes of steroid-sensitive SLE group): 68.8%

basiliximab
in vitro concentration required to produce the in vitro (antiproliferative) effect ([6]; 0.01 to 10 mg/l incubated with lymphocytes in the absence of steroids): 0.1 to 0.3 mg/L | PHA-induced cell proliferation (cpm) ([6]; mean of 8 subjects): 23943 cpm | Inhibition (%) ([6]; mean of 8 subjects): 37.8% | PHA-induced cell proliferation (cpm) ([6]; subject 1): 21827 cpm | Inhibition (%) ([6]; subject 1): 43.5% | PHA-induced cell proliferation (cpm) ([6]; subject 2): 15157 cpm | Inhibition (%) ([6]; subject 2): 39.9% | PHA-induced cell proliferation (cpm) ([6]; subject 3): 27239 cpm | Inhibition (%) ([6]; subject 3): 33.3% | PHA-induced cell proliferation (cpm) ([6]; subject 4): 27538 cpm | Inhibition (%) ([6]; subject 4): 15.4% | PHA-induced cell proliferation (cpm) ([6]; subject 5): 21446 cpm | Inhibition (%) ([6]; subject 5): 52.8% | PHA-induced cell proliferation (cpm) ([6]; subject 6): 35003 cpm | Inhibition (%) ([6]; subject 6): 47.1% | PHA-induced cell proliferation (cpm) ([6]; subject 7): 16122 cpm | Inhibition (%) ([6]; subject 7): 44.2% | PHA-induced cell proliferation (cpm) ([6]; subject 8): 27209 cpm | Inhibition (%) ([6]; subject 8): 26.4% | Modulation of lymphocyte steroid sensitivity (LSS) of steroid-resistant subjects ([2]; effect on Imax, subjects 5-8, basiliximab 1 mg/l): all become Steroid-sensitive | Enhancement of the anti-proliferative effect of DEX ([3]; basiliximab 1 mg/L, Wilcoxon signed-rank test, p<0.0001): significantly enhanced; also recorded: marked in vitro steroid enhancing effect | Modulation of steroid-resistant subjects (Imax<60%) to steroid-sensitive ([3]; in vitro, basiliximab 1 mg/L): All 8 steroid-resistant subjects (Imax<60%) are modulated (in vitro) to steroid-sensitive | IL-2R occupancy [7]: > 90% | Side-effects / safety of administration [8]: safe

daclizumab
Side-effects / safety of administration [8]: safe
